For data set [1], the system named is Bovine viral diarrhea virus 1. The data set can be described thus: Antiviral activity against BVDV infected in bovine MDBK cells assessed as protection against viral-induced cytopathogenecity after 3 to 4 days by MTT method. The format is functional, organism-based. The conditions noted are these: Bovine viral diarrhea virus isolates and strains, MDBK. (Tetrazolium assays rely on reduction of a dye to a coloured formazan, in cell work by metabolically active cells.)

A short description of data set [2]: Cytotoxicity against African green monkey Vero 76 cells assessed as cell viability after 48 to 96 hrs by MTT method. It is filed as cell-based. The conditions noted are these: chlorocebus sabaeus, Vero 76 cells.
A short description of data set [3]: Cytotoxicity against human MT4 cells assessed as cell viability after 96 hrs by MTT method. It is filed as cell-based.
The nature of data set [4]: Cytotoxicity against bovine MDBK cells assessed as cell viability after 72 hrs by MTT method. The format is cell-based, Bos taurus. The note with it: cattle.
For data set [5], the system named is Vesicular stomatitis virus. The data set can be described thus: Antiviral activity against VSV infected in African green monkey Vero 76 cells after 2 days by plaque reduction assay. It is filed as functional, organism-based. The conditions noted are these: Vesicular stomatitis virus, Vero, 48 h. (In general: In a plaque reduction assay, fewer plaques than in the control indicate reduced infectivity or spread.)

A further data set deals with Human alphaherpesvirus 1. The data set can be described thus: Antiviral activity against HSV1 infected in African green monkey Vero 76 cells after 3 days by plaque reduction assay. The conditions noted are these: Human alphaherpesvirus 1, Vero, 72 h. It is filed as functional, organism-based.
For data set [6], the system named is Mammalian orthoreovirus 1. Briefly: Antiviral activity against Reovirus 1 infected in hamster BHK21 cells assessed as protection against viral-induced cytopathogenecity after 3 to 4 days by MTT method. The format is functional, cell-based. The conditions noted are these: Mammalian orthoreovirus 1, BHK-21.
Data set [7] deals with Human immunodeficiency virus 1. The data set can be described thus: Antiviral activity against HIV1 infected in human MT4 cells assessed as protection against viral-induced cytopathogenecity after 4 days by MTT method. The format is functional, organism-based. The conditions noted are these: Human immunodeficiency virus 1, MT4, 96 h.
The test system of a further data set is Yellow fever virus. Briefly: Antiviral activity against YFV infected in hamster BHK21 cells assessed as protection against viral-induced cytopathogenecity after 3 to 4 days by MTT method. It is filed as functional, organism-based, BHK-21. The note with it: Yellow fever virus, BHK-21.
Data set [8] in a line: Cytotoxicity against hamster BHK21 cells assessed as cell viability after 72 hrs by MTT method. The format is cell-based, Mesocricetus auratus, BHK-21.
The next data set relates to Vaccinia virus. Briefly: Antiviral activity against Vaccinia virus infected in African green monkey Vero 76 cells after 3 days by plaque reduction assay. It is filed as functional, organism-based, Orthopoxvirus vaccinia. The conditions noted are these: Orthopoxvirus vaccinia, Vero, 72 h.
In data set [9] the test system is Respiratory syncytial virus. The data set can be described thus: Antiviral activity against RSV infected in African green monkey Vero 76 cells after 5 days by plaque reduction assay. The conditions noted are these: human respiratory syncytial virus, Vero, 120 h. It is filed as functional, organism-based.
Another data set concerns Enterovirus C. The data set can be described thus: Antiviral activity against Poliovirus Sb-1 infected in African green monkey Vero 76 cells after 2 days by plaque reduction assay. The format is functional, organism-based. The conditions noted are these: Enterovirus C, Sb-1, Vero, 48 h.
The test system of another data set is Coxsackievirus B5. Briefly: Antiviral activity against Coxsackievirus B5 infected in African green monkey Vero 76 cells after 3 days by plaque reduction assay. The note with it: Enterovirus B, Vero, 72 h. It is filed as functional, organism-based.
A short description of data set [10]: Selectivity index, ratio of CC50 for African green monkey Vero 76 cells to EC50 for RSV infected in African green monkey Vero 76 cells.
A short description of data set [11]: Selectivity index, ratio of CC50 for hamster BHK21 cells to EC50 for YFV infected in hamster BHK21 cells. Also noted: species or system BHK-21.

Bounds are passed on as bounds.

As for `Cc1ccc(NCc2cn(-c3ccccc3)nc2-c2ccc(Br)cc2)cc1`, the EC50 (in data set [1]; in data set [5]; in the data set with Human alphaherpesvirus 1; in [6]; in data set [7]; with Yellow fever virus) was above 100 µM throughout. The EC50 was above 100 µM in the data set on Vaccinia virus, 11 µM in [9], above 100 µM with Enterovirus C and above 100 µM in the data set with Coxsackievirus B5. For the same compound, the CC50 in [2] is above 100 µM. For the same compound, in [3], the CC50 at 96 h was above 100 µM. In addition, the CC50 at 72 h in data set [4] and in data set [8] was above 100 µM in each case. Besides, the “Ratio CC50/EC50” value in [10] is listed as above 9.1.

As for `Cc1ccc(-c2nn(-c3ccccc3)cc2CNc2ccc(Br)cc2)cc1`, the EC50 was above 100 µM in [1]; above 92 µM in [5]; above 92 µM in the data set with Human alphaherpesvirus 1; above 100 µM in [6]; above 100 µM in [7]; above 100 µM in the data set with Yellow fever virus. The EC50 in the data set on Vaccinia virus was above 92 µM; in data set [9] it was 11 µM; in the data set on Enterovirus C it was above 92 µM; in the data set with Coxsackievirus B5, above 92 µM. In addition, in [2], the CC50 came out at 92 µM. Besides, in data set [3], the CC50 at 96 h is above 100 µM. The CC50 at 72 h in [4] and in data set [8] was above 100 µM in each case. Moreover, in data set [10], the “Ratio CC50/EC50” value was 8.4.

As for `Cc1ccc(NCc2cn(-c3ccccc3)nc2-c2ccc(C)cc2)cc1`, the EC50 (in data set [1]; in data set [5]; in the data set with Human alphaherpesvirus 1; in data set [6]; in data set [7]; with Yellow fever virus) was above 100 µM in each case. The EC50 with Vaccinia virus is above 100 µM; in data set [9] it was 28 µM; with Enterovirus C, above 100 µM; in the data set with Coxsackievirus B5, above 100 µM. In addition, the CC50 in data set [2] is above 100 µM. Also, in data set [3], the CC50 at 96 h was above 100 µM. For the same compound, the CC50 at 72 h in data set [4] and in [8] was above 100 µM throughout. In addition, in data set [10], the “Ratio CC50/EC50” value was above 3.6.

With `FC(F)(F)c1ccc(-c2nn(-c3ccccc3)cc2CNc2ccc(Br)cc2)cc1`, the EC50 in data set [1] was above 64 µM; in data set [5], above 17 µM; with Human alphaherpesvirus 1, above 17 µM; in [6], above 28 µM; in [7], above 100 µM; with Yellow fever virus, above 28 µM. Also, the EC50 in the data set with Vaccinia virus is above 17 µM; in data set [9], 5 µM; with Enterovirus C, above 17 µM; with Coxsackievirus B5 it was above 17 µM. The CC50 in data set [2] is 17 µM. Moreover, the CC50 at 96 h in data set [3] was above 100 µM. The CC50 at 72 h stood at 64 µM in [4] and 28 µM in data set [8]. The “Ratio CC50/EC50” value in [10] worked out at 3.4.

For `FC(F)(F)c1ccc(-c2nn(-c3ccccc3)cc2CNc2ccc(Cl)cc2)cc1`, the EC50 in data set [1] is above 44 µM; in data set [5] it was above 80 µM; with Human alphaherpesvirus 1 it was above 80 µM; in data set [6], above 31 µM; in [7] it was above 100 µM; in the data set on Yellow fever virus it was above 31 µM. For the same compound, the EC50 with Vaccinia virus is above 80 µM; in [9], above 10 µM; in the data set on Enterovirus C, above 80 µM; in the data set with Coxsackievirus B5, above 80 µM. Further, the CC50 in [2] was 10 µM. For the same compound, the CC50 at 96 h in data set [3] is above 100 µM. Besides, the cytotoxic concentration (CC50) at 72 h turned out to be 44 µM in data set [4] and 31 µM in [8].

Take `FC(F)(F)c1ccc(NCc2cn(-c3ccccc3)nc2-c2ccccc2)cc1`: the EC50 in [1] was above 34 µM; in [5], above 75 µM; in the data set with Human alphaherpesvirus 1 it was above 75 µM; in [6] it was above 37 µM; in [7], above 100 µM; in the data set on Yellow fever virus, above 37 µM. In addition, the EC50 is above 75 µM in the data set with Vaccinia virus, above 17 µM in data set [9], above 75 µM in the data set with Enterovirus C and above 75 µM in the data set with Coxsackievirus B5. For the same compound, the CC50 in [2] came out at 17 µM. For the same compound, in [3], the CC50 at 96 h was above 100 µM. In addition, the CC50 at 72 h worked out at 34 µM in [4] and 37 µM in data set [8].

As to `FC(F)(F)c1ccc(NCc2cn(-c3ccccc3)nc2-c2ccc(Cl)cc2)cc1`, the EC50 in data set [1] is above 31 µM; in data set [5], above 18 µM; in the data set on Human alphaherpesvirus 1 it was above 18 µM; in [6] it was above 17 µM; in data set [7], above 100 µM; with Yellow fever virus, above 17 µM. The EC50 (with Vaccinia virus; in data set [9]; in the data set with Enterovirus C; in the data set with Coxsackievirus B5) was above 18 µM throughout. Also, in [2], the CC50 was found to be 18 µM. In data set [3], the CC50 at 96 h was above 100 µM. Moreover, the CC50 at 72 h was found to be 31 µM in data set [4] and 17 µM in [8].

Regarding `FC(F)(F)c1ccc(NCc2cn(-c3ccccc3)nc2-c2ccc(C(F)(F)F)cc2)cc1`, the EC50 is above 26 µM in data set [1]; above 26 µM in [5]; above 26 µM in the data set on Human alphaherpesvirus 1; above 27 µM in [6]; above 100 µM in [7]; above 37 µM in the data set with Yellow fever virus. Also, the EC50 (with Vaccinia virus; in data set [9]; with Enterovirus C; with Coxsackievirus B5) was above 26 µM throughout. Also, in [2], the CC50 came out at 26 µM. Besides, the CC50 at 96 h in data set [3] was above 100 µM. In addition, the figures for the CC50 at 72 h in data set [4] and in [8] were 26 µM and 27 µM, respectively.

With `Cc1ccc(-c2nn(-c3ccccc3)cc2CNc2ccc(C(F)(F)F)cc2)cc1`, the EC50 in [1] was above 100 µM; in [5] it was above 45 µM; in the data set on Human alphaherpesvirus 1, above 45 µM; in [6], above 88 µM; in data set [7], above 100 µM; in the data set with Yellow fever virus, above 100 µM. Besides, the EC50 (with Vaccinia virus; in data set [9]; in the data set with Enterovirus C; in the data set on Coxsackievirus B5) was above 45 µM each time. In addition, the CC50 in data set [2] was 45 µM. Also, in data set [3], the CC50 at 96 h was above 100 µM. Besides, the CC50 at 72 h in data set [4] was above 100 µM; in data set [8], 88 µM.

For `FC(F)(F)c1ccc(NCc2cn(-c3ccccc3)nc2-c2ccc(Br)cc2)cc1`, the EC50 is above 46 µM in data set [1]; above 28 µM in [5]; above 28 µM with Human alphaherpesvirus 1; above 20 µM in data set [6]; above 100 µM in [7]; above 28 µM with Yellow fever virus. Besides, the EC50 (in the data set with Vaccinia virus; in data set [9]; in the data set on Enterovirus C; in the data set with Coxsackievirus B5) was above 28 µM throughout. Further, the CC50 in [2] came to 28 µM. Further, the CC50 at 96 h in data set [3] was above 100 µM. The CC50 at 72 h in data set [4] is 46 µM; in data set [8], 20 µM.

As for `C[C@@]1(O)[C@H](O)[C@@H](CO)O[C@H]1n1ccc(N)nc1=O`, in data set [6], the EC50 turned out to be 6 µM. For the same compound, in data set [8], the CC50 at 72 h is above 100 µM.

For the compound `O=c1cnn([C@@H]2O[C@H](CO)[C@@H](O)[C@H]2O)c(=O)[nH]1` [6-AZAURIDINE], the half-maximal cytotoxic concentration (CC50) in [2] came out at 10 µM. In addition, the “Ratio CC50/EC50” value in data set [11] is reported as above 2.2; in data set [10] it was 11.1. Moreover, the EC50 with Yellow fever virus was 46 µM; in data set [9] it was 0.9 µM. Also, the CC50 at 72 h in data set [8] is above 100 µM.

As to `Nc1nc2c(ncn2COCCO)c(=O)[nH]1` [ACYCLOVIR], the CC50 in data set [2] was above 100 µM. Moreover, the EC50 with Human alphaherpesvirus 1 was determined as 2.8 µM.

Regarding `COc1c(C)c2c(c(O)c1C/C=C(\C)CCC(=O)O)C(=O)OC2` [MYCOPHENOLIC ACID], the CC50 in data set [2] was 19 µM. The compound further displayed an EC50 in the data set with Vaccinia virus of 1.5 µM.

Regarding `Cc1cc(CCCOc2c(C)cc(-c3noc(C(F)(F)F)n3)cc2C)on1` [PLECONARIL], the CC50 in data set [2] worked out at 80 µM. Besides, the EC50 in the data set with Enterovirus C was determined as 2.2 µM; with Coxsackievirus B5 it was 0.005 µM.

As usually defined, the EC50 is the concentration needed to bring the measured effect to its halfway point. As usually defined, the CC50 is the concentration giving 50% cytotoxicity.
